Read-outs that look alike come from different tables or passages of the source.
Legend:
[1] = molecular target: T1, human recombinant GST-PAK1-KD protein (Homo sapiens, UniProt Q13153); test: GST-PAK1-KD (kinase domain) biochemical assay, microfluidic mobility shift
T1 construct: residues #249-545 of human PAK1, UniProtKP/Swiss Q13153; His6 (N); made in house; host or cells: Sf9 insect cells, pAcGP67 baculovirus expression vector

[2] = tested on: group I PAKs (PAK1-3) in EBC1 cells, MEK1 phosphorylation at S298; test: Cellular PAK assay: MEK1 (S298) phosphorylation in EBC1 cells, HTRF; format: cell-based; conditions: Homo sapiens, EBC-1, 2 h treatment, Example 66
Protocol: Group I PAKs (PAK1-3) are activated upon binding to the Rho GTPases, Rac1 and Cdc42. […] The inhibition of group I PAKs in EBC1 cells is assessed by detecting changes in the level of MEK1 phosphorylation at S298 using homogenous time-resolved fluorescence (HTRF). […] Following inhibitor treatment, cells were lysed with 25 μL of 1× cellular kinase lysis buffer (Cisbio) containing 1× cellular kinase blocking reagent (Cisbio). Cellular lysis was carried out at 4° C. for 2 h with constant shaking before lysate (16 μL) was transferred to white 384-well ProxiPlates™ (Perkin Elmer).

[3] = GST-PAK1-KD Inhibition Assay - Example 65, read-out: PAK1 inhibition Ki
[4] = Table I, PAK1 Ki class, read-out: Ki
[5] = Table II, PAK1 Ki class, read-out: Ki

T1 sequence (Q13153 249-545): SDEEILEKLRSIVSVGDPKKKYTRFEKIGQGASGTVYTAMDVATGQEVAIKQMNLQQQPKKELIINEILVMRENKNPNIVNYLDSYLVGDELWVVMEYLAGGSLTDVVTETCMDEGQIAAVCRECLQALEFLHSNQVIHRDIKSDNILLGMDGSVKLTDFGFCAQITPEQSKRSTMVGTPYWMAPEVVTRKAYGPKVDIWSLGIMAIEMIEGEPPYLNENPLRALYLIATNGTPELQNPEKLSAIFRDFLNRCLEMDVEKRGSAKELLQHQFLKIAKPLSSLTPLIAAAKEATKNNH

Row | Structure (SMILES) | Ki [1, 3] [nM] | Ki [1, 4] [nM] | IC50 [2] [nM] | Ki ([1]; Ki, Table I, PAK1 Ki class) [nM] | Ki [1, 5] [nM]
1 | Cc1cc(Nc2cc(C3CC3)[nH]n2)nc(N[C@@H](C)c2ccc3[nH]ccc3c2)n1 [I-7, (S)—N^2-(1-(1H-indol-5-yl)ethyl)-N^4-(5-cyclopropyl-1H-pyrazol-3-yl)-6-methylpyrimidine-2,4-diamine] | 13.5 | < 50 | 212 |  | 
2 | C[C@H](Nc1nccc(Nc2cc(C3CC3)[nH]n2)n1)c1ccc2[nH]ccc2c1 [I-8, (S)—N^2-(1-(1H-indol-5-yl)ethyl)-N^4-(5-cyclopropyl-1H-pyrazol-3-yl)pyrimidine-2,4-diamine] | 15.1 |  | 133 | < 50 | 
3 | FC(F)(F)c1cc(Nc2cc(C3CC3)[nH]n2)nc(NCc2ccc3[nH]cnc3c2)n1 [I-11, N^2-((1H-benzo[d]imidazol-5-yl)methyl)-N^4-(5-cyclopropyl-1H-pyrazol-3-yl)-6-(trifluoromethyl)pyrimidine-2,4-diamine] | 33 | < 50 | 917 |  | 
4 | c1cc(CNc2nccc(Nc3cc(C4CC4)[nH]n3)n2)c2nc[nH]c2c1 [I-39, N^2-((1H-benzo[d]imidazol-4-yl)methyl)-N^4-(5-cyclopropyl-1H-pyrazol-3-yl)pyrimidine-2,4-diamine] | 74.7 | 50 to 250 | 205 |  | 
5 | C[C@H](Nc1nccc(Nc2cc(CC3CC3)[nH]n2)n1)c1ccc2[nH]cnc2c1 [I-45, (S)—N^2-(1-(1H-benzo[d]imidazol-5-yl)ethyl)-N^4-(5-(cyclopropylmethyl)-1H-pyrazol-3-yl)pyrimidine-2,4-diamine] | 41 | < 50 | 1200 |  | 
6 | c1cc(CNc2nccc(Nc3cc(C4CC4)[nH]n3)n2)c2cn[nH]c2c1 [I-59, N^2-((1H-Indazol-4-yl)methyl)-N^4-(5-cyclopropyl-1H-pyrazol-3-yl)pyrimidine-2,4-diamine] | 37 | < 50 | 104 |  | 
7 | C[C@H](Nc1nccc(Nc2cc([C@H]3CC3(F)F)[nH]n2)n1)c1ccc2[nH]cnc2c1 [I-62, N^2—((S)-1-(1H-benzo[d]imidazol-5-yl)ethyl)-N^4-(5-((R)-2,2-difluorocyclopropyl)-1H-pyrazol-3-yl)pyrimidine-2,4-diamine] | 5.13 | < 50 | 244 |  | 
8 | Clc1cnc(NCc2ccc3[nH]cnc3c2Cl)nc1Nc1cc(C2CC2)[nH]n1 [I-106, 5-chloro-N^2-((4-chloro-1H-benzo[d]imidazol-5-yl)methyl)-N^4-(5-cyclopropyl-1H-pyrazol-3-yl)pyrimidine-2,4-diamine] | 14.8 | < 50 | 1300 |  | 
9 | Clc1c(CNc2nccc(Nc3cc(C4CCCO4)[nH]n3)n2)ccc2[nH]cnc12 (centres unmarked) [I-109, N^2-((4-chloro-1H-benzo[d]imidazol-5-yl)methyl)-N^4-(5-(tetrahydrofuran-2-yl)-1H-pyrazol-3-yl)pyrimidine-2,4-diamine] | 27.5 | < 50 | 786 |  | 
10 | C[C@H](Nc1nccc(Nc2cc(C3CCC3)[nH]n2)n1)c1ccc2[nH]ccc2c1 [I-114, (S)—N^2-(1-(1H-indol-5-yl)ethyl)-N^4-(5-cyclobutyl-1H-pyrazol-3-yl)pyrimidine-2,4-diamine] | 6.75 | < 50 | 133 |  | 

More lines, now with the values ahead:

Row | Ki [1, 3] [nM] | Ki [1, 4] [nM] | IC50 [2] [nM] | Ki ([1]; Ki, Table I, PAK1 Ki class) [nM] | Ki [1, 5] [nM] | Structure (SMILES)
11 | 7.1 |  | 475 |  | < 50 | CN(Cc1ccc2[nH]cnc2c1Cl)c1nccc(Nc2cc(C3COC3)[nH]n2)n1 [II-2, N^2-[(4-Chloro-1H-benzimidazol-5-yl)methyl]-N^2-methyl-N4-[5-(oxetan-3-yl)-1H-pyrazol-3-yl]pyrimidine-2,4-diamine]
12 | 1.6 |  | 43 |  | < 50 | CCN(Cc1ccc2[nH]cnc2c1Cl)c1nccc(Nc2cc(C(C)C)[nH]n2)n1 [II-11, N^2-((4-Chloro-1H-benzo[d]imidazol-5-yl)methyl)-N^2-ethyl-N^4-(5-isopropyl-1H-pyrazol-3-yl)pyrimidine-2,4-diamine]
13 | 36 |  | 188 |  | < 50 | Fc1cnc(NCc2cc(Cl)cc3[nH]cnc23)nc1Nc1cc(C2CC2)[nH]n1 [II-23, N^2-((6-Chloro-1H-benzo[d]imidazol-4-yl)methyl)-N^4-(5-cyclopropyl-1H-pyrazol-3-yl)-5-fluoropyrimidine-2,4-diamine]
14 |  |  |  |  | < 50 | CO[C@@H](C)CN(Cc1cc(F)cc2[nH]ncc12)c1nccc(Nc2cc(C3CC3)[nH]n2)n1 [II-95, (S)-N^4-(5-cyclopropyl-1H-pyrazol-3-yl)-N^2-((6-fluoro-1H-indazol-4-yl)methyl)-N^2-(2-methoxypropyl)pyrimidine-2,4-diamine]
15 |  |  |  |  | < 50 | CC(C)N(Cc1cc(F)cc2[nH]ncc12)c1ncc(F)c(Nc2cc(C3CC3)[nH]n2)n1 [II-96, N^4-(5-cyclopropyl-1H-pyrazol-3-yl)-5-fluoro-N^2-((6-fluoro-1H-indazol-4-yl)methyl)-N^2-isopropylpyrimidine-2,4-diamine]
16 |  |  |  |  | < 50 | COc1cc(CNc2ncc(F)c(Nc3cc(C4CC4)[nH]n3)n2)c2cn[nH]c2c1 [II-98, N^4-(5-cyclopropyl-1H-pyrazol-3-yl)-5-fluoro-N^2-((6-methoxy-1H-indazol-4-yl)methyl)pyrimidine-2,4-diamine]
17 |  |  |  |  | < 50 | FC(F)(F)c1cc(CNc2nccc(Nc3cc(C4CC4)[nH]n3)n2)c2cn[nH]c2c1 [II-99, N^4-(5-Cyclopropyl-1H-pyrazol-3-yl)-N^2-((6-(trifluoromethyl)-1H-indazol-4-yl)methyl)pyrimidine-2,4-diamine]
18 |  |  |  |  | < 50 | CN(Cc1c(F)ccc2[nH]ncc12)c1nccc(Nc2cc(C3CC3)[nH]n2)n1 [II-100, N^4-(5-cyclopropyl-1H-pyrazol-3-yl)-N^2-((5-fluoro-1H-indazol-4-yl)methyl)-N^2-methylpyrimidine-2,4-diamine]
19 |  |  |  |  | 50 to 250 | Fc1cc(CNc2ncc(F)c(Nc3cc([C@@H]4CC4(F)F)[nH]n3)n2)c2cn[nH]c2c1 [II-101, (S)-N^4-(5-(2,2-difluorocyclopropyl)-1H-pyrazol-3-yl)-5-fluoro-N^2-((6-fluoro-1H-indazol-4-yl)methyl)pyrimidine-2,4-diamine]
20 |  |  |  |  | 50 to 250 | CN(Cc1ccc2[nH]cnc2c1)c1ncc(F)c(Nc2cc(C3CC3)[nH]n2)n1 [II-103, N^2-((1H-benzo[d]imidazol-5-yl)methyl)-N^4-(5-cyclopropyl-1H-pyrazol-3-yl)-5-fluoro-N^2-methylpyrimidine-2,4-diamine]
21 |  |  |  |  | 50 to 250 | CCN(Cc1ccc2[nH]cnc2c1)c1ncc(F)c(Nc2cc(C3CC3)[nH]n2)n1 [II-104, N^2-((1H-benzo[d]imidazol-5-yl)methyl)-N^4-(5-cyclopropyl-1H-pyrazol-3-yl)-N^2-ethyl-5-fluoropyrimidine-2,4-diamine]
22 |  |  |  |  | 50 to 250 | CN(C)CCN(Cc1ccc2[nH]cnc2c1)c1nccc(Nc2cc(C3CC3)[nH]n2)n1 [II-105, N^2-((1H-benzo[d]imidazol-5-yl)methyl)-N^4-(5-cyclopropyl-1H-pyrazol-3-yl)-N^2-(2-(dimethylamino)ethyl)pyrimidine-2,4-diamine]
23 |  |  |  |  | 50 to 250 | Fc1cc(CNc2ncc(Cl)c(Nc3cc(C4CC4)[nH]n3)n2)c2cn[nH]c2c1 [II-106, 5-chloro-N^4-(5-cyclopropyl-1H-pyrazol-3-yl)-N^2-((6-fluoro-1H-indazol-4-yl)methyl)pyrimidine-2,4-diamine]
24 |  |  |  |  | 50 to 250 | CCc1cc(Nc2ccnc(NCc3cc(F)cc4[nH]ncc34)n2)n[nH]1 [II-107, N^4-(5-ethyl-1H-pyrazol-3-yl)-N^2-((6-fluoro-1H-indazol-4-yl)methyl)pyrimidine-2,4-diamine]
25 |  |  |  |  | 50 to 250 | Fc1cnc(N(Cc2ccc3[nH]cnc3c2)C2CCCC2)nc1Nc1cc(C2CC2)[nH]n1 [II-108, N^2-((1H-benzo[d]imidazol-5-yl)methyl)-N^2-cyclopentyl-N^4-(5-cyclopropyl-1H-pyrazol-3-yl)-5-fluoropyrimidine-2,4-diamine]
26 |  |  |  |  | 250 to 1000 | Fc1cnc(NCc2cc(C(F)(F)F)cc3[nH]ncc23)nc1Nc1cc(C2CC2)[nH]n1 [II-109, N^4-(5-cyclopropyl-1H-pyrazol-3-yl)-5-fluoro-N^2-((6-(trifluoromethyl)-1H-indazol-4-yl)methyl)pyrimidine-2,4-diamine]
27 |  |  |  |  | < 50 | CN(C)CCN(Cc1cc(F)cc2[nH]ncc12)c1nccc(Nc2cc(C3CC3)[nH]n2)n1 [II-110, N^4-(5-cyclopropyl-1H-pyrazol-3-yl)-N^2-(2-(dimethylamino)ethyl)-N^2-((6-fluoro-1H-indazol-4-yl)methyl)pyrimidine-2,4-diamine]
28 |  |  |  |  | < 50 | CCN(Cc1ccc2[nH]cnc2c1Cl)c1ncc(F)c(Nc2cc([C@@H]3C[C@@H]3F)[nH]n2)n1 [II-111, N^2-((4-chloro-1H-benzo[d]imidazol-5-yl)methyl)-N^2-ethyl-5-fluoro-N^4-(5-((1S,2S)-2-fluorocyclopropyl)-1H-pyrazol-3-yl)pyrimidine-2,4-diamine]
29 |  |  |  |  | < 50 | Clc1c[nH]c2cccc(CNc3nccc(Nc4cc(C5CC5)[nH]n4)n3)c12 [II-112, N^2-((3-chloro-1H--indol-4-yl)methyl)-N^4-(5-cyclopropyl-1H-pyrazol-3-yl)pyrimidine-2,4-diamine]
30 |  |  |  |  | < 50 | CN(Cc1cc2nc[nH]c2cc1F)c1nccc(Nc2cc(C3CC3)[nH]n2)n1 [II-113, N^2-((6-fluoro-1H-benzo[d]imidazol-5-yl)methyl)-N^4-(5-cyclopropyl-1H-pyrazol-3-yl)-N^2-methylpyrimidine-2,4-diamine]

— patent publication US8637537B2, “Serine/threonine kinase inhibitors” (Genentech, Inc., priority 2011, dated 2014)
